Reference: patent US7038049B2, “Haloanilino quinazolines and therapeutic use thereof” (Parker Hughes Institute, priority 1999, dated 2006)

Key:
Assay type in all cases: cell-based
Conditions in all cases: 24–36 hours
[1] = system: NALM-6 human leukemia cells; experiment: MTT cytotoxicity assay, NALM-6
Experimental: (§1) The cytotoxicity assay of various compounds against human tumor cell lines was performed using the MTT (3-[4,5-dimethylthiazol-2-yl]-2,5-diphenyl tetrazolium bromide) assay (Boehringer Mannheim Corp., Indianapolis, Ind.). Briefly, exponentially growing tumor cells were seeded into a 96-well plate at a density of 2.5×10^4 cells/well and incubated for 36 hours at 37° C. prior to drug exposure. On the day of treatment, culture medium was carefully aspirated from the wells and replaced with fresh medium containing the quinazoline compounds at concentrations ranging from 0.1 to 250 μM. Triplicate wells were used for each treatment.
(§2) Human cell lines were obtained from American Type Culture Collection (Rockville, Md.) and maintained as a continuous cell line in Dulbecco's modified Eagles' medium supplemented with 10% fetal bovine serum and antibiotics. Cells used in this study include human leukemia cells (NALM-6 and MOLT-3), human breast cancer cells ([…]), human prostate cancer cells (PC3), and human brain tumor cells (U373).
(§3) The cells were incubated with the various compounds for 24–36 hours at 37° C. in a humidified 5% CO2 atmosphere. To each well, 10 μl of MTT (0.5 mg/ml final concentration) was added and the plates were incubated at 37° C. for 4 hours to allow MTT to form formazan crystals by reacting with metabolically active cells. The formazan crystals were solubilized overnight at 37° C. in a solution containing 10% SDS in 0.01 M HCl. The absorbance of each well was measured in a microplate reader (Labsystems) at 540 nm and a reference wavelength of 690 nm. To translate the OD 540 values into the number of live cells in each well, the OD 540 values were compared to those on standard OD 540—versus—cell number curves generated for each cell line. The percent survival was calculated using the formula:
(§4) [formula] The IC50 values were calculated by non-linear regression analysis. Detection of Apoptosis

[2] = system: MOLT-3 human leukemia cells; experiment: MTT cytotoxicity assay, MOLT-3
Experimental: as §1, §2, §3, §4

[3] = system: BT20 human breast cancer cells; experiment: MTT cytotoxicity assay, BT20
Experimental: as §1, §2, §3, §4

[4] = system: U373 human brain tumor cells; experiment: MTT cytotoxicity assay, U373
Experimental: as §1, §2, §3, §4

[5] = Homo sapiens, NALM-6, Table 1, bromo substituted
[6] = Homo sapiens, MOLT-3, Table 1, bromo substituted
[7] = Homo sapiens, BT-20, Table 1, bromo substituted
[8] = Homo sapiens, NALM-6, Table 3, iodide substituted
[9] = Homo sapiens, NALM-6, Table 4, OH substituted
[10] = Homo sapiens, MOLT-3, Table 3, iodide substituted
[11] = Homo sapiens, MOLT-3, Table 4, OH substituted
[12] = Homo sapiens, BT-20, Table 3, iodide substituted
[13] = Homo sapiens, BT-20, Table 4, OH substituted
[14] = Homo sapiens, U373 MG, Table 3, iodide substituted
[15] = Homo sapiens, NALM-6, Table 2, chloro substituted
[16] = Homo sapiens, MOLT-3, Table 2, chloro substituted
[17] = Homo sapiens, BT-20, Table 2, chloro substituted
[18] = Homo sapiens, U373 MG, Table 4, OH substituted

SMILES: COc1cc2ncnc(Nc3ccc(C)c(Br)c3)c2cc1OC [HI-P111, 4-(3′-Bromo-4′-methylphenyl)-amino-6,7-dimethoxyquinazoline]
- IC50 [1, 5]: 201 µM
- IC50 [2, 6]: > 250 µM
- IC50 [3, 7]: > 250 µM

SMILES: COc1cc2ncnc(Nc3cccc(Br)c3)c2cc1OC [HI-P79, 4-(3′-Bromophenyl)-amino-6,7-dimethoxyquinazoline]
- IC50 [1, 5]: 142 µM
- IC50 [2, 6]: 195 µM
- IC50 [3, 7]: 202 µM

SMILES: COc1cc2ncnc(Nc3cc(I)c(O)c(I)c3)c2cc1OC [HI-P294, 4-(4′-Hydroxy-3,5-diiodophenyl)-amino-6,7-dimethoxy-quinazoline]
- IC50 [1, 8]: > 250 µM
- IC50 [1, 9]: > 250 µM
- IC50 [2, 10]: > 250 µM
- IC50 [2, 11]: > 250 µM
- IC50 [3, 12]: > 250 µM
- IC50 [3, 13]: > 250 µM
- IC50 [4, 14]: > 250 µM
- IC50 ([4]; Table 4, OH substituted): > 250 µM

SMILES: COc1cc2ncnc(Nc3ccc4c(c3)Cc3cc(Br)ccc3-4)c2cc1OC [HI-P160, 4-[(7′-Bromofluorene)-2′]-amino-6,7-dimethoxyquinazoline]
- IC50 [1, 5]: 135 µM
- IC50 [2, 6]: 241 µM
- IC50 [3, 7]: 25.5 µM

SMILES: COc1cc2ncnc(Nc3ccc(O)c(I)c3)c2cc1OC [HI-P299, 4-(4′-Hydroxy-3′-iodophenyl)-amino-6,7-dimethoxyquinazoline]
- IC50 [1, 8]: 15.4 µM
- IC50 [1, 9]: 66.3 µM
- IC50 [2, 10]: 60.1 µM
- IC50 [2, 11]: 51.2 µM
- IC50 [3, 12]: > 250 µM
- IC50 [3, 13]: > 250 µM
- IC50 [4, 14]: > 250 µM
- IC50 ([4]; Table 4, OH substituted): > 250 µM

SMILES: COc1cc2ncnc(Nc3c(Br)cccc3Br)c2cc1OC [HI-P262, 4-(2′,6′-Dibromophenyl)-amino-6,7-dimethoxyquinazoline]
- IC50 [1, 5]: > 250 µM
- IC50 [2, 6]: > 250 µM
- IC50 [3, 7]: > 250 µM

SMILES: COc1cc2ncnc(Nc3ccc(C)c(Br)c3Br)c2cc1OC [HI-P210, 4-(2′,3′-Dibromo-4′-methylphenyl)-amino-6,7-dimethoxyquinazoline]
- IC50 [1, 5]: > 250 µM
- IC50 [2, 6]: > 250 µM
- IC50 [3, 7]: > 250 µM

SMILES: COc1cc2ncnc(Nc3cc(Cl)ccc3O)c2cc1OC [HI-P93, 4-(3′-Chlooro-6′-hydroxylphenyl)amino-6,7-dimethoxyquinazoline]
- IC50 [1, 15]: > 250 µM
- IC50 [1, 9]: > 250 µM
- IC50 [2, 16]: > 250 µM
- IC50 [2, 11]: > 250 µM
- IC50 [3, 17]: > 250 µM
- IC50 [3, 13]: > 250 µM
- IC50 [4, 18]: > 250 µM

SMILES: COc1cc2ncnc(Nc3c(Br)cc(C)cc3Br)c2cc1OC [HI-P241, 4-(2′,6′-Dibromo-4′-methylphenyl)-amino-6,7-dimethoxyquinazoline]
- IC50 [1, 5]: > 250 µM
- IC50 [2, 6]: > 250 µM
- IC50 [3, 7]: > 250 µM

SMILES: COc1cc2ncnc(Nc3ccccc3Cl)c2cc1OC [HI-P268, 4-(2′-Chlorophenyl)-amino-6,7-dimethoxyquinazoline]
- IC50 [1, 15]: 215 µM
- IC50 [2, 16]: 227 µM
- IC50 [3, 17]: 122 µM

SMILES: COc1cc2ncnc(Nc3ccccc3I)c2cc1OC [HI-P270, 4-(2′-Iodophenyl)-amino-6,7-dimethoxyquinazoline]
- IC50 [1, 8]: > 250 µM
- IC50 [2, 10]: 78.9 µM
- IC50 [3, 12]: > 250 µM
- IC50 [4, 14]: > 250 µM

SMILES: COc1cc2ncnc(Nc3ccccc3)c2cc1OC [HI-P258]
- IC50 [1, 5]: > 250 µM
- IC50 [2, 6]: > 250 µM
- IC50 [3, 7]: > 250 µM

SMILES: COc1cc2ncnc(Nc3cc(Br)c(C)c(Br)c3)c2cc1OC [HI-P212, 4-(3′,5′-Dibromo-4′-methylphenyl)-amino-6,7-dimethoxyquinazoline]
- IC50 [1, 5]: 52.7 µM
- IC50 [2, 6]: 54.5 µM
- IC50 [3, 7]: > 250 µM

SMILES: COc1cc2ncnc(Nc3ccccc3Br)c2cc1OC [HI-P261, 4-(2′-Bromophenyl)-amino-6,7-dimethoxyquinazoline]
- IC50 [1, 5]: 72.6 µM
- IC50 [2, 6]: 148 µM
- IC50 [3, 7]: 219 µM

SMILES: COc1cc2ncnc(Nc3cccc(I)c3)c2cc1OC [HI-P271, 4-(3′-Iodophenyl)-amino-6,7-dimethoxyquinazoline]
- IC50 [1, 8]: 6.1 µM
- IC50 [2, 10]: 9.6 µM
- IC50 [3, 12]: > 250 µM
- IC50 [4, 14]: > 250 µM

SMILES: COc1cc2ncnc(Nc3ccc(Br)cc3CO)c2cc1OC [HI-P190, 4-(4′-Bromo-6′-hydroxymethylphenyl)-amino-6,7-dimethoxyquinazoline]
- IC50 [1, 5]: > 250 µM
- IC50 [1, 9]: > 250 µM
- IC50 [2, 6]: > 250 µM
- IC50 [2, 11]: > 250 µM
- IC50 [3, 7]: > 250 µM
- IC50 [3, 13]: > 250 µM
- IC50 [4, 18]: > 250 µM

SMILES: COc1cc2ncnc(Nc3ccc(C)cc3)c2cc1OC [HI-P234]
- IC50 [1, 5]: > 250 µM
- IC50 [2, 6]: > 250 µM
- IC50 [3, 7]: > 250 µM

SMILES: COc1cc2ncnc(Nc3ccc(Br)cc3C(=O)O)c2cc1OC [HI-P88, 4-(4′-Bromo-2′-caboxylphenyl)-amino-6,7-dimethoxyquinazoline]
- IC50 [1, 5]: > 250 µM
- IC50 [2, 6]: > 250 µM
- IC50 [3, 7]: > 250 µM

SMILES: COc1cc2ncnc(Nc3c(Br)cc(Br)cc3Br)c2cc1OC [HI-P222, 4-(2′, 4′, 6′-Tribromophenyl)amino-6,7-dimethoxyquinazoline]
- IC50 [1, 5]: 34 µM
- IC50 [2, 6]: 48.3 µM
- IC50 [3, 7]: > 250 µM

SMILES: COc1cc2ncnc(Nc3cc(Br)c(O)c(Br)c3)c2cc1OC [HI-P97, 4-(3′,5′-Dibromo-4′-hydroxylphenyl)-amino-6,7-dimethoxyquinazoline]
- IC50 [1, 5]: > 250 µM
- IC50 ([1]; Table 4, OH substituted): > 250 µM
- IC50 [2, 6]: > 250 µM
- IC50 ([2]; Table 4, OH substituted): > 250 µM
- IC50 [3, 7]: 26.1 µM
- IC50 [4, 18]: 161 µM

SMILES: COc1cc2ncnc(Nc3ccc(O)c(Cl)c3)c2cc1OC [HI-P197, 4-(3′-Chloro-4′-hydroxylphenyl)-amino-6,7-dimethoxyquinazoline]
- IC50 [1, 15]: 39.3 µM
- IC50 [1, 9]: 68.5 µM
- IC50 [2, 16]: 68 µM
- IC50 [2, 11]: 63.8 µM
- IC50 [3, 17]: 137 µM
- IC50 [3, 13]: 71.5 µM
- IC50 [4, 18]: > 250 µM

SMILES: COc1cc2ncnc(Nc3cc(Br)c(C)cc3Br)c2cc1OC [HI-P211, 4-(2′,5′-Dibromo-4′-methylphenyl)-amino-6,7-dimethoxyquinazoline]
- IC50 [1, 5]: > 250 µM
- IC50 [2, 6]: > 250 µM
- IC50 [3, 7]: > 250 µM

SMILES: COc1cc2ncnc(Nc3ccc(Br)cc3)c2cc1OC [HI-P260, 4-(4′-Bromophenyl)-amino-6,7-dimethoxyquinazoline]
- IC50 [1, 5]: 32.4 µM
- IC50 [2, 6]: 51.3 µM
- IC50 [3, 7]: 82.1 µM

SMILES: COc1cc2ncnc(Nc3ccc(I)cc3)c2cc1OC [HI-P300, 4-(4′-Iodophenyl)-amino-6,7-dimethoxyquinazoline]
- IC50 [1, 8]: 58 µM
- IC50 [2, 10]: 59.1 µM
- IC50 [3, 12]: 72.6 µM
- IC50 [4, 14]: 116 µM

SMILES: COc1cc2ncnc(Nc3ccc(Cl)cc3)c2cc1OC [HI-P269, 4-(4′-Chlorophenyl)-amino-6,7-dimethoxyquinazoline]
- IC50 [1, 15]: > 250 µM
- IC50 [2, 16]: > 250 µM
- IC50 [3, 17]: > 250 µM

SMILES: COc1cc2ncnc(Nc3ccc(O)c(Br)c3)c2cc1OC [HI-P154, 4-(3′-Bromo-4′-hydroxylphenyl)-amino-6,7-dimethoxyquinazoline]
- IC50 [1, 5]: 12.5 µM
- IC50 [2, 6]: 9.1 µM
- IC50 [3, 7]: > 250 µM
- IC50 ([3]; Table 4, OH substituted): > 250 µM

SMILES: COc1cc2ncnc(Nc3cccc(Cl)c3)c2cc1OC [HI-P87, 4-(3′-Chlorophenyl)-amino-6,7-dimethoxyquinazoline]
- IC50 [1, 15]: 95.9 µM
- IC50 [2, 16]: > 105 µM
- IC50 [3, 17]: > 250 µM

SMILES: COc1cc2ncnc(Nc3ccc(Cl)c4ccccc34)c2cc1OC [HI-P415, 4-(4′-Chloronaphthy-1′)-amino-6,7-dimethoxyquinazoline]
- IC50 [1, 15]: 67.9 µM
- IC50 [2, 16]: > 250 µM
- IC50 [3, 17]: 38.1 µM

SMILES: COc1cc2ncnc(Nc3ccc(O)cc3O)c2cc1OC [HI-P192, 4-(2′,4′-Dihydroxyphenyl)-amino-6,7-dimethoxyquinazoline]
- IC50 [1, 9]: > 250 µM
- IC50 [2, 11]: > 250 µM
- IC50 [3, 13]: > 250 µM
- IC50 [4, 18]: > 250 µM

SMILES: COc1cc2ncnc(Nc3cc(Cl)c(O)c(Cl)c3)c2cc1OC [HI-P189, 4-(4′-Hydroxyl-3′,5′-dichlorophenyl)amino-6,7-dimethoxyquinazoline]
- IC50 [1, 15]: > 250 µM
- IC50 [1, 9]: > 250 µM
- IC50 [2, 16]: > 250 µM
- IC50 [2, 11]: > 250 µM
- IC50 [3, 17]: > 250 µM
- IC50 [3, 13]: > 250 µM
- IC50 [4, 18]: > 250 µM

SMILES: COc1cc2ncnc(C(=O)c3cccc(Br)c3)c2cc1OC [HI-P164, 4-(3′-Bromobenzoyl)-6,7-dimethoxyquinazoline]
- IC50 [1, 5]: > 250 µM
- IC50 [2, 6]: > 250 µM
- IC50 [3, 7]: 39.2 µM
